How the values were obtained:
[1] = test system: non-transformed normal BJ cells; experiment: BrdU incorporation and FACS analysis (cell cycle arrest); type: cell-based, human; details: 24 h; 2.5 and 5 μM (FIG. 9A, 9C)
Protocol: A: is output from a FACS analysis of isogenic-non-transformed, without (panels a-c) (WT) or with (panels d-f) shRNA-mediated knockdown of p53 (p53KD), and oncogene-transformed BJ cells (panels g-i), each treated with 0, 5 or 2.5 μM Compound 1 (a131) for 24 h. Cells were doubly stained with PI (horizontal axis) and BrdU (vertical axis). The BrdU-positive population in panels a-c are indicated as arrows. B: is a diagrammatic representation of an immunoblot analysis showing isogenic non-transformed (normal) and oncogene-transformed BJ cells (transformed) treated with Compound 1 (a131) at 0, 2.5 or 5 μM for 24 h or 48 h. Cells were harvested and total lysates were analysed by detecting p53 and p21. Antibodies raised against β-actin were used as an internal loading control. C and D are histograms showing the percentage of bromodeoxyuracil (BrdU)-positive non-transformed (normal) BJ cells. C: Cells were treated with Group 1 Compound 1 (a131) at 2.5 and 5 μM, Compound 23 (b36) at 2.5 and 5 μM, and Compound 21 (b35) at 5 μM, and Group 2 Compound 25 (a166) at 2.5 and 5 μM, for 24 h. Cells were doubly stained with propidium iodide (PI) and BrdU, and subjected to FACS analysis. The BrdU-positive population are plotted as bars. D: Cells were treated with Group 1 Compound 1 (a131), Compound 16 (b5), and Compound 17 (b9); Group 2 Compound 13 (b12), Compound 12 (b16) and Compound 25 (a166), and Group 3 Compound 3 (a159) at 5 μM for 48 h. The percentage of cells with BrdU positive population, in comparison with DMSO control vehicle, is shown with mean values±S.D. (n=3).
Isogenic non-transformed and oncogene-transformed BJ cells (cultured as in Biology Example 3) were treated with Compound 1 at final concentrations of 2.5 and 5 μM for 24 h. The treated cells were then treated with 30 μM final concentration of 5-bromo-2′-deoxyuridine (BrdU, SIGMA) for 1 h to detect DNA synthesis as a marker for cell proliferation. Subsequently, the cells were fixed in EtOH at 4° C. overnight and permeabilized with 2N HCl/0.5% Triton X-100 for 30 min. The cells were then treated with 0.1M sodium tetraborate for 2 min and stained with anti-BrdU antibody (Invitrogen, Cat#B35129) for 60 min, followed by a 30 min treatment with 20 μg/mL of propidium iodide (PI) and 10 μg/mL RNaseA.
Furthermore, the abilities of additional five (5) Compounds to arrest cells at the stage of G1/S phase of the cell cycle were evaluated. […] The abilities of these Compounds to arrest cells at the stage of G1/S phase of the cell cycle were then measured by using BrdU incorporation assay and FACS analysis. The percentage of cells with BrdU positive population in comparison with DMSO control vehicle was determined and plotted with mean values±S.D. (n=3).

[2] = test system: mitotic marker phospho-histone H3 at serine 10 (pH3 (Ser10)) in transformed BJ cells; experiment: Immunoblot analysis of mitotic marker pH3 (Ser10), derivatives of Compound 1; type: cell-based; details: Homo sapiens, band intensities pH3(Ser10)/β-actin vs DMSO control, 24 h
Protocol: (§1) FIG. 4 compares the ability of Compound 1 (a131), and various derivatives thereof (referred to using their code numbers for brevity; the designated chemical compound for each code number is provided in the chemical examples section below), to inhibit autophagy and/or mitosis. BJ transformed cells were treated with 5 μM of various Compounds as shown, for 24 h. Cells were harvested and total lysates were analysed by detecting the mitotic marker phospho-histone H3 at serine 10 (pH3 (Ser10)) and the autophagosome marker LC3. Antibodies raised against β-actin were used as an internal loading control.
(§2) The ability of Compound 1 to inhibit lysosome function was examined using immunoblotting. HeLa cervical cancer cells were cultured in Dulbecco's modified Eagle's medium (DMEM) supplemented with 10% Fetal Bovine Serum (FBS, Thermo Scientific). The HeLa cells were treated with different concentrations of Compound 1 (0.625, 1.25, 2.5, 5 and 10 μM, dimethyl sulfoxide (DMSO, Kanto Kagaku)), chloroquine (CQ) (1.25, 2.5, 10, 50 and 100 μM, DMSO) or DMSO for 6 h. Then, the treated cells were harvested and lysed in 1% triton lysis buffer [25 mM Tris HCl (pH8.0), 150 mM NaCl, 1% triton-X100, 1 mM dithiothreitol (DTT), protease inhibitor mix (Complete Mini, Roche) and phosphatase inhibitor (PhosphoStop, Roche)]. The proteins in total lysates were boiled with sample buffer (60 mM Tris-HCl (pH 6.8), 25% glycerol, 2% SDS, 14.4 mM 2-mercaptoethanol, 0.1% bromophenol blue) and resolved by 14% tris-glycine sodium dodecyl sulfate polyacrylamide gel electrophoresis (SDS-PAGE) and subjected to immunoblot analysis.
(§3) Defects in lysosome function and inhibition of autophagy can be measured by accumulation of LC3-phosphatidylethanolamine conjugated non-soluble form (LC3-II), which are converted from soluble LC3-I. Thus, antibodies raised against LC3 (Cell Signaling, Cat#4108) were used to determine lysosomal function and integrity. Antibodies raised against phosphorylated histone H3 at serine 10 residue (pH3) (Cell signaling, Cat#3377) were used as the marker for mitotic dysfunction and arrest. Antibodies raised against β-actin (Millipore, Cat#MAB1501) were used as an internal loading control. The inhibitory ability of Compound 1 was also quantitatively compared to CQ.
(§4) Derivatives of Compound 1 were tested to see if they had similar dual activity, or presented only one of the activities of Compound 1. The protocol for immunoblot analysis described in Biology Example 1 was applied to the additional indicated compounds.
(§5) Activities of compounds were determined by two independent experiments. First, Compounds were classified according to the intensity of increase in each of the mitotic marker phospho-histone H3 at serine 10 (pH3 (Ser 10)) and the autophagosome marker LC3, respectively, at 1.25 μM, when compared with 1.25 μM Compound 1 (a131).
(§6) Compounds classified “++” on either “mitosis” or “inhibits lysosome” show similar increase in each of the mitotic marker phospho-histone H3 at serine 10 (pH3 (Ser10)) and the autophagosome marker LC3, respectively, at 2.5 μM, when compared with 1.25 μM Compound 1 (a131); and compounds classified “+” on either “mitosis” or “inhibits lysosome” show similar increase in each of the mitotic marker phospho-histone H3 at serine 10 (pH3 (Ser10)) and the autophagosome marker LC3, respectively, at a concentration range of 5-10 μM, when compared with 1.25 μM Compound 1 (a131).
Compounds classified “+/−” on either “mitosis” or “inhibits lysosome” show less increase in each of the mitotic marker phospho-histone H3 at serine 10 (pH3 (Ser10)) and the autophagosome marker LC3, respectively, at a concentration range of 5-10 μM, when compared with 1.25 μM Compound 1 (a131).
Next, the ability of Compound 1 and its derivatives to induce mitotic arrest in transformed BJ cells was quantified as the fold induction of band intensities [pH3(Ser10)/β-actin] in comparison with DMSO control. […]

[3] = test system: autophagosome marker LC3 (LC3 II/LC3 I) in transformed BJ cells; experiment: Immunoblot analysis of autophagosome marker LC3 (lysosome function), derivatives of Compound 1; type: cell-based; details: Homo sapiens, band intensities LC3 II/LC3 I vs DMSO control, 24 h
Protocol: as §1, §2, §3, §4, §5, §6
Compounds classified “+/−” on either “mitosis” or “inhibits lysosome” show less increase in each of the mitotic marker phospho-histone H3 at serine 10 (pH3 (Ser10)) and the autophagosome marker LC3, respectively, at a concentration range of 5-10 μM, when compared with 1.25 μM Compound 1 (a131). […]

[4] = test system: pH3 (Ser10) and LC3 in BJ transformed cells; experiment: Immunoblot classification of compounds by pH3 and LC3 (FIG. 4); type: cell-based, human; details: 5 μM, 24 h
Protocol: as §1, §4

[5] = test system: HeLa cells (mitotic spindles, β-tubulin/DAPI); experiment: Immunofluorescence analysis of mitotic spindles and chromosomes; type: cell-based, human; details: 6 h, Compound 1 2.5 μM, CQ 15 or 25 μM
Protocol: HeLa cells, treated with Compound 1 (a131) at 2.5 μM (FIG. 3b), chloroquine (CQ) at 15 μM (FIG. 3c) or 25 μM (FIG. 3d), or DMSO (FIG. 3a) for 6 h, were fixed in methanol and subjected to immunofluorescence analysis using antibodies against β-tubulin to visualize proper formation of mitotic spindles. The condensed mitotic chromosomes were visualized by counterstaining with DAPI. Only Compound 1 (a131)-treated HeLa cells arrested in mitosis with misaligned chromosomes and disorganized spindles (FIG. 3b). The bars in FIGS. 3a-d represent 5 μm in length.
To confirm the inhibitory mitotic progression ability, HeLa cervical cancer cells as cultured above were treated with Compound 1 (2.5 μM, DMSO), CQ (15 or 25 μM, DMSO) or DMSO for 6 h. The treated cells were fixed in methanol and subjected to immunofluorescence analysis using antibodies against β-tubulin (Abcam, Cat#ab52623) to visualize proper formation of mitotic spindles. The condensed mitotic chromosomes were visualized by counterstaining with DAPI.

N#C/C(=C\c1cccc2cnccc12)c1cn(C(=O)C2CCN(C(=O)CCCC[C@@H]3SC[C@@H]4NC(=O)N[C@@H]43)CC2)c2ccccc12 [Compound 23, (Z)-3-(isoquinolin-5-yl)-2-(1-(1-(5-((3aS,4S,6aR)-2-oxohexahydro-1H-thieno[3,4-d]imidazol-4-yl)pentanoyl)piperidine-4-carbonyl)-1H-indol-3-yl)acrylonitrile]
BrdU-positive cell population [1]: substantially decreased the population of BrdU-positive cells | fold induction at 5 µM [2]: 18.6 | fold induction at 5 µM [3]: 5.7 | Inhibition of lysosome function and/or mitosis (FIG. 4) [4]: exhibit the dual properties of inhibiting both lysosome function and mitosis

N#C/C(=C\c1cccc2cnccc12)c1cn(C(=O)C2CCNCC2)c2ccccc12 [Compound 21, (Z)-3-(isoquinolin-5-yl)-2-(1-(piperidine-4-carbonyl)-1H-indol-3-yl)acrylonitrile]
BrdU-positive cell population [1]: substantially decreased the population of BrdU-positive cells | fold induction at 5 µM [2]: 10.1 | fold induction at 5 µM [3]: 7.3 | Inhibition of lysosome function and/or mitosis (FIG. 4) [4]: exhibit the dual properties of inhibiting both lysosome function and mitosis

C(=C\c1c[nH]c2ccccc12)/c1cncc2cnccc12 [Compound 26, 4-((E)-2-(1H-indol-3-yl)vinyl)-2,7-naphthyridine]
fold induction at 5 µM [2]: 1.2 | fold induction at 5 µM [3]: 2.7 | Inhibition of lysosome function and/or mitosis (FIG. 4) [4]: inhibit lysosome function only

COCCOCC(=O)n1cc(/C(C#N)=C/c2cccc3cnccc23)c2ccccc21 [Compound 30, (Z)-2-(1-(2-(2-methoxyethoxy)acetyl)-1H-indol-3-yl)-3-(isoquinolin-5-yl)acrylonitrile]
fold induction at 5 µM [2]: 12.8 | fold induction at 5 µM [3]: 4.1 | Inhibition of lysosome function and/or mitosis (FIG. 4) [4]: exhibit the dual properties of inhibiting both lysosome function and mitosis

N#C/C(=C\c1cccc2cnccc12)c1n[nH]c2ccccc12 [Compound 34, (Z)-2-(1H-indazol-3-yl)-3-(isoquinolin-5-yl)acrylonitrile]
fold induction at 5 µM [2]: 1.4 | fold induction at 5 µM [3]: 2 | Inhibition of lysosome function and/or mitosis (FIG. 4) [4]: inhibit lysosome function only

COCCOc1ccc2[nH]cc(/C(C#N)=C/c3cccc4cnccc34)c2c1 [Compound 12, (Z)-2-(5-(2-methoxyethoxy)-1H-indol-3-yl)-3-(isoquinolin-5-yl)acrylonitrile]
fold induction at 5 µM [2]: 1.6 | fold induction at 5 µM [3]: 3.2 | Inhibition of lysosome function and/or mitosis (FIG. 4) [4]: inhibit lysosome function only

CC(C)(C)OC(=O)N1CCC(C(=O)n2cc(/C(C#N)=C/c3cccc4cnccc34)c3ccccc32)CC1 [Compound 19, (Z)-tert-butyl 4-(3-(1-cyano-2-(isoquinolin-5-yl)vinyl)-1H-indole-1-carbonyl)piperidine-1-carboxylate]
fold induction at 5 µM [2]: 16.2 | fold induction at 5 µM [3]: 5.2 | Inhibition of lysosome function and/or mitosis (FIG. 4) [4]: exhibit the dual properties of inhibiting both lysosome function and mitosis

COc1ccc2[nH]cc(/C(C#N)=C/c3cccc4cnccc34)c2c1 [Compound 2, (Z)-3-(isoquinolin-5-yl)-2-(5-methoxy-1H-indol-3-yl)acrylonitrile]
fold induction at 5 µM [2]: 3 | fold induction at 5 µM [3]: 3.2 | Inhibition of lysosome function and/or mitosis (FIG. 4) [4]: exhibit the dual properties of inhibiting both lysosome function and mitosis

N#C/C(=C\c1cccc2cnccc12)c1c[nH]c2cc(CN3CCCC3)ccc12 [Compound 31, (Z)-3-(isoquinolin-5-yl)-2-(6-((pyrrolidin-1-yl)methyl)-1H-indol-3-yl)acrylonitrile]
fold induction at 5 µM [2]: 1.1 | fold induction at 5 µM [3]: 5.7 | Inhibition of lysosome function and/or mitosis (FIG. 4) [4]: inhibit lysosome function only

CCN(CC)CCCC(C)Nc1ccnc2cc(Cl)ccc12 (stereo not drawn) [CQ, chloroquine, reference compound]
mitotic arrest, chromosome alignment and mitotic spindles [5]: no such effects were seen

— patent publication US10308631B2, “Selective anti-cancer compounds” (NATIONAL UNIVERSITY OF SINGAPORE, priority 2015, dated 2019)
